Measured values reported in patent US8003659B2, “Macrocyclic serine protease inhibitors” (Indenix Pharmaceuticals, Inc., priority 2008, dated 2011).

How the values were obtained:
HCV NS3-NS4A protease = target: T1, HCV NS3-NS4A protease (Hepatitis C virus genotype 1b, UniProt P26663); experiment: HCV Protease Assay (SensoLyte 620 HCV Protease Assay kit); assay type: biochemical; conditions: 1.2 nM HCV NS3-NS4A protease, 60 min at room temperature, 5% DMSO
T1 construct: made in house
Method: General procedure: Measurement of the inhibitory effect of compounds on HCV protease activity was performed with the SensoLyte™ 620 HCV Protease Assay kit from AnaSpec, Inc. (San Jose, Calif.) under conditions described by the supplier using 1.2 nM HCV NS3-NS4A protease, which was obtained according to Taremi et al. (Protein Science, 1998, 7, 2143-2149). The compounds were tested at a variety of concentrations in assay buffer containing a final DMSO concentration of 5%. Reactions were allowed to proceed for 60 min at room temperature and fluorescence measurements were recorded with a Tecan Infinity Spectrofluorimeter. The IC50 values were determined from the percent inhibition versus concentration data using a sigmoidal non-linear regression analysis based on four parameters with Tecan Magellan software.

[1] = system: Huh-7 cells containing HCV Con1 subgenomic replicon (GS4.1 cells); experiment: HCV Replicon Assay (NS4A ELISA); assay type: cell-based; conditions: Hepatitis C virus, Huh-7, 72 hr, NS4A protein by ELISA
Method: General procedure: Huh-7 cells containing HCV Con1 subgenomic replicon (GS4.1 cells) were grown in Dulbecco's Modified Eagle Medium (DMEM) supplemented with 10% fetal bovine serum (FBS), 2 mM L-glutamine, 110 mg/L sodium pyruvate, 1× non-essential amino acids, 100 U/mL penicillin-streptomycin, and 0.5 mg/mL G418 (Invitrogen). For dose-response testing, the cells were seeded in 96-well plates at 7.5×10^3 cells/well in a volume of 50 μL, and incubated at 37° C./5% CO2. Three hours after plating, 50 μL of ten 2-fold serial dilutions of compounds (highest concentration, 75 μM) were added, and cell cultures were incubated at 37° C./5% CO2 in the presence of 0.5% DMSO. Alternatively, compounds were tested at a single concentration of 15 μM. In all cases, Huh-7 cells lacking the HCV replicon served as negative control. The cells were incubated in the presence of compounds for 72 hr after which they were monitored for expression of the NS4A protein by enzyme-linked immunosorbent assay (ELISA). For this, the plates were then fixed for 1 min with acetone/methanol (1:1, v/v), washed twice with phosphate-buffered saline (PBS), 0.1% Tween 20, blocked for 1 hr at room temperature with TNE buffer containing 10% FBS and then incubated for 2 hr at 37° C. with the anti-NS4A mouse monoclonal antibody A-236 (ViroGen) diluted in the same buffer. After washing three times with PBS, 0.1% Tween 20, the cells were incubated 1 hr at 37° C. with anti-mouse immunoglobulin G-peroxidase conjugate in TNE, 10% FBS. After washing as described above, the reaction was developed with O-phenylenediamine (Zymed). The reaction was stopped after 30 min with 2 NH2SO4, and absorbance was read at 492 nm using Sunrise Tecan spectrophotometer. EC50 values were determined from the % inhibition versus concentration data using a sigmoidal non-linear regression analysis based on four parameters with Tecan Magellan software. When screening at a single concentration, the results were expressed as % inhibition at 15 μM.

[2] = Cytotoxicity evaluation (Cell Titer 96 AQueous One Solution Cell Proliferation Assay); assay type: cell-based; conditions: human; GS4.1 cells, cellular viability
Method: For cytotoxicity evaluation, GS4.1 cells were treated with compounds as described above and cellular viability was monitored using the Cell Titer 96 AQueous One Solution Cell Proliferation Assay (Promega). CC50 values were determined from the % cytotoxicity versus concentration data with Tecan Magellan software as described above.

T1 sequence (P26663 1027-1208): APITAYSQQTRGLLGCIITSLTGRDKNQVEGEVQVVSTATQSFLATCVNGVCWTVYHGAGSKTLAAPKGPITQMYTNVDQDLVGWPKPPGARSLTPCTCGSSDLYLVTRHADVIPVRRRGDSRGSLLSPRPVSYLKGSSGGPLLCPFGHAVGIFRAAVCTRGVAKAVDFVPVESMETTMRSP

Structure (SMILES) | IC50 (HCV NS3-NS4A protease) | EC50 [1] | CC50 [2]
COc1ccc2c(O[C@H]3C[C@H]4C(=O)N(C)CCCC/C=C\[C@@H]5C[C@@]5(C(=O)NS(=O)(=O)C5(C)CC5)NC(=O)N4C3)cc(-c3nc(C(F)(F)F)cs3)nc2c1Cl [Compound 68d, (Z)-(4R,6S,15S,17S)-[17-[8-chloro-7-methoxy-2-(4-trifluoromethythiazol-2-yl)quinolin-4-yloxy]-13-N-methyl-2,14-dioxo-1,3,13-triazatricyclo[13.3.0.0]octadec-7-en-4-yl]carbonyl(1-methylcyclopropyl)sulfonamide] | < 1000 nM | < 1000 nM | > 75000 nM
COc1ccc2c(O[C@H]3C[C@H]4C(=O)N(C)CCCC/C=C\[C@@H]5C[C@@]5(C(=O)NS(=O)(=O)C5(C)CC5)NC(=O)N4C3)cc(-n3ccc(C(C)C)n3)nc2c1C [Compound 91b, (Z)-(4R,6S,15S,17S)-[17-[8-methyl-7-methoxy-2-(3-isopropyl-1H-pyrazol-1-yl)quinolin-4-yloxy]-13-N-methyl-2,14-dioxo-1,3,13-triazatricyclo[13.3.0.0]octadec-7-ene-4-yl]carbonyl(1-methylcyclopropyl)sulfonamide] | < 1000 nM | < 1000 nM | 10000 to 75000 nM
COc1ccc2c(O[C@H]3C[C@H]4C(=O)N(C)CCCC/C=C\[C@@H]5C[C@@]5(C(=O)NS(=O)(=O)C5(C)CC5)NC(=O)N4C3)cc(-c3csc(C(F)(F)F)n3)nc2c1Cl [Compound O2, (Z)-(4R,6S,15S,17S)-[17-[8-chloro-7-methoxy-2-(2-trifluoromethylthiazol-4-yl)quinolin-4-yloxy]-13-N-methyl-2,14-dioxo-1,3,13-triazatricyclo-[13.3.0.0]octadec-7-en-4-yl]carbonyl-(1-methylcyclopropyl)sulfonamide] | < 1000 nM | < 1000 nM | 10000 to 75000 nM
COc1ccc2c(O[C@H]3C[C@H]4C(=O)N(C)CCCC/C=C\[C@@H]5C[C@@]5(C(=O)NS(=O)(=O)C5CC5)NC(=O)N4C3)cc(-c3nc(C4CCC4)cs3)nc2c1Cl [AC2, (Z)-(4R,6S,15S,17S)-[17-[8-chloro-7-methoxy-2-(4-cyclobutylthiazol-2-yl)quinolin-4-yloxy]-13-N-methyl-2,14-dioxo-1,3,13-triazatricyclo-[13.3.0.0]octadec-7-en-4-yl]carbonyl-(cyclopropyl)sulfonamide] | < 1000 nM | < 1000 nM | 10000 to 75000 nM
COc1ccc2c(O[C@H]3C[C@H]4C(=O)N(C)CCCC/C=C\[C@@H]5C[C@@]5(C(=O)NS(C)(=O)=O)NC(=O)N4C3)cc(-c3nc(C(C)C)cs3)nc2c1C [Compound 63b] | < 1000 nM | 1000 to 10000 nM | > 75000 nM
COc1ccc2c(O[C@H]3C[C@H]4C(=O)N(C)CCCC/C=C\[C@@H]5C[C@@]5(C(=O)NS(=O)(=O)C5CC5)NC(=O)N4C3)cc(-c3nc(C)cs3)nc2c1Cl [AN, (Z)-(4R,6S,15S,17S)-[17-[8-chloro-7-methoxy-2-(4-methylthiazol-4-yl)quinolin-4-yloxy]-13-N-methyl-2,14-dioxo-1,3,13-triazatricyclo-[13.3.0.0]octadec-7-en-4-yl]carbonyl-(cyclopropyl)sulfonamide] | < 1000 nM | < 1000 nM | 10000 to 75000 nM
COc1cc2c(O[C@H]3C[C@H]4C(=O)N(C)CCCC/C=C\[C@@H]5C[C@@]5(C(=O)NS(=O)(=O)C5(C)CC5)NC(=O)N4C3)cc(-c3nc(C(C)C)cs3)nc2cc1Cl [Compound 56g, (Z)-(4R,6S,15S,17S)-[17-[7-chloro-6-methoxy-2-(4-isopropylthiazol-2-yl)quinolin-4-yloxy]-13-N-methyl-2,14-dioxo-1,3,13-triazatricyclo[13.3.0.0]octadec-7-en-4-yl]carbonyl(1-methyl-cyclopropyl)sulfonamide] | < 1000 nM | < 1000 nM | > 75000 nM
COc1ccc2c(O[C@H]3C[C@H]4C(=O)N(C)CCCC/C=C\[C@@H]5C[C@@]5(C(=O)NS(=O)(=O)C5(C)CC5)NC(=O)N4C3)cc(-c3nc(C4CCC4)cs3)nc2c1Cl [AC3, (Z)-(4R,6S,15S,17S)-[17-[8-chloro-7-methoxy-2-(4-cyclobutylthiazol-2-yl)quinolin-4-yloxy]-13-N-methyl-2,14-dioxo-1,3,13-triazatricyclo-[13.3.0.0]octadec-7-en-4-yl]carbonyl-(1-methylcyclopropyl)sulfonamide] | < 1000 nM | < 1000 nM | > 75000 nM
COc1cc(OC)c2c(O[C@H]3C[C@H]4C(=O)N(C)CCCC/C=C\[C@@H]5C[C@@]5(C(=O)NS(=O)(=O)C5(C)CC5)NC(=O)N4C3)cc(-c3nc(C(C)C)cs3)nc2c1 [Compound 56e, (Z)-(4R,6S,15S,17S)-[17-[5,7-dimethoxy-2-(4-isopropylthiazol-2-yl)quinolin-4-yloxy]-13-N-methyl-2,14-dioxo-1,3,13-triazatricyclo[13.3.0.0]octadec-7-en-4-yl]carbonyl(1-methyl-cyclopropyl)sulfonamide] | < 1000 nM | 1000 to 10000 nM | > 75000 nM
COc1ccc2c(O[C@H]3C[C@H]4C(=O)N(C)CCCC/C=C\[C@@H]5C[C@@]5(C(=O)NS(=O)(=O)C5CC5)NC(=O)N4C3)cc(-c3csc(C(F)(F)F)n3)nc2c1Cl [Compound O1, (Z)-(4R,6S,15S,17S)-[17-[8-chloro-7-methoxy-2-(2-trifluoromethylthiazol-4-yl)quinolin-4-yloxy]-13-N-methyl-2,14-dioxo-1,3,13-triazatricyclo-[13.3.0.0]octadec-7-en-4-yl]carbonyl-(cyclopropyl)sulfonamide] | < 1000 nM | < 1000 nM | 10000 to 75000 nM
C#Cc1csc(-c2cc(O[C@H]3C[C@H]4C(=O)N(C)CCCC/C=C\[C@@H]5C[C@@]5(C(=O)NS(=O)(=O)C5CC5)NC(=O)N4C3)c3ccc(OC)c(Cl)c3n2)n1 [Compound G1, (Z)-(4R,6S,15S,17S)-[17-[8-chloro-7-methoxy-2-(4-ethynylthiazol-2-yl)quinolin-4-yloxy]-13-N-methyl-2,14-dioxo-1,3,13-triazatricyclo-[13.3.0.0]octadec-7-en-4-yl]carbonyl(cyclopropyl)sulfonamide] | < 1000 nM | < 1000 nM | 10000 to 75000 nM
COc1ccc2c(O[C@H]3C[C@H]4C(=O)N(C)CCCC/C=C\[C@@H]5C[C@@]5(C(=O)NS(=O)(=O)C5(C)CC5)NC(=O)N4C3)cc(-n3ccc(C(C)C)n3)nc2c1Cl [Compound 91d, (Z)-(4R,6S,15S,17S)-[17-[8-chloro-7-methoxy-2-(3-isopropyl-1H-pyrazol-1-yl)quinolin-4-yloxy]-13-N-methyl-2,14-dioxo-1,3,13-triazatricyclo[13.3.0.0]octadec-7-ene-4-yl]carbonyl(1-methylcyclopropyl)sulfonamide] | < 1000 nM | < 1000 nM | > 75000 nM
C#Cc1csc(-c2cc(O[C@H]3C[C@H]4C(=O)N(C)CCCC/C=C\[C@@H]5C[C@@]5(C(=O)NS(=O)(=O)C5(C)CC5)NC(=O)N4C3)c3ccc(OC)c(Cl)c3n2)n1 [Compound G2, (Z)-(4R,6S,15S,17S)-[17-[8-chloro-7-methoxy-2-(4-ethynylthiazol-2-yl)quinolin-4-yloxy]-13-N-methyl-2,14-dioxo-1,3,13-triazatricyclo-[13.3.0.0]octadec-7-en-4-yl]carbonyl(1-methyl-cyclopropyl)sulfonamide] | < 1000 nM | < 1000 nM | 10000 to 75000 nM
C#Cc1csc(-c2cc(O[C@H]3C[C@H]4C(=O)N(C)CCCC/C=C\[C@@H]5C[C@@]5(C(=O)NS(=O)(=O)C5CC5)NC(=O)N4C3)c3ccc(OC)c(C)c3n2)n1 [Compound G3, (Z)-(4R,6S,15S,17S)-[17-[7-methoxy-8-methyl-2-(4-ethynylthiazol-2-yl)quinolin-4-yloxy]-13-N-methyl-2,14-dioxo-1,3,13-triazatricyclo-[13.3.0.0]octadec-7-en-4-yl]carbonyl(cyclopropyl)sulfonamide] | < 1000 nM | < 1000 nM | 10000 to 75000 nM
